According to patent publication US20140155580A1, “TRANSGENIC AVES PRODUCING HUMAN POLYCLONAL ANTIBODIES” (Synageva BioPharma Corp., priority 2003, published 2014):

Test system: chicken embryonic stem cells
Assay: Titration kill curve: cES cells in culture exposed to puromycin or neomycin
Type: cell-based
Set-up: key to Morphology of cES cells: ES: ES cells are present.; diff: ES cells are differentiated.; gone: no morphologically recognizable cells are present
Method: In a preferred embodiment, the concentration of puromycin required for selecting transfected cells is calculated as a titration kill curve. Titration kill curves for chicken embryonic stem cells are established by exposing cells in culture to puromycin concentrations varying from 0.0 to 1.0 μg/ml for 10 days (Table 7) and neomycin concentrations varying from 0.0 to 200 μg/ml (Table 8). The medium is changed every 2 days and fresh puromycin or neomycin is added. […] Puromycin concentrations of 0.3-1.0 μg/ml are used for selection of the transfected cultures. Neomycin concentrations over 40 μg/ml eliminated all cES cells within 7 days (Table 8).

neomycin was tested, and the “Morphology of cES cells” value (neomycin 10 μg/ml, day 1 under selection) was “ES”, the “Morphology of cES cells” value (neomycin 10 μg/ml, day 2 under selection) was “ES” and the “Morphology of cES cells” value (neomycin 10 μg/ml, day 3 under selection) was “ES”. For the same substance, the “Morphology of cES cells” value (neomycin 10 μg/ml, day 4 under selection) was “ES”, the “Morphology of cES cells” value (neomycin 10 μg/ml, day 5 under selection) was “ES” and the “Morphology of cES cells” value (neomycin 10 μg/ml, day 6 under selection) was “ES”. The “Morphology of cES cells” value (neomycin 10 μg/ml, day 7 under selection) was “ES”, the “Morphology of cES cells” value (neomycin 10 μg/ml, day 8 under selection) was “ES” and the “Morphology of cES cells” value (neomycin 10 μg/ml, day 9 under selection) was “ES”. For the same substance, the “Morphology of cES cells” value (neomycin 10 μg/ml, day 10 under selection) was “ES”, the “Morphology of cES cells” value (neomycin 20 μg/ml, day 1 under selection) was “ES” and the “Morphology of cES cells” value (neomycin 20 μg/ml, day 2 under selection) was “ES”. For the same substance, the “Morphology of cES cells” value (neomycin 20 μg/ml, day 3 under selection) was “ES”, the “Morphology of cES cells” value (neomycin 20 μg/ml, day 4 under selection) was “ES” and the “Morphology of cES cells” value (neomycin 20 μg/ml, day 5 under selection) was “ES”. The “Morphology of cES cells” value (neomycin 20 μg/ml, day 6 under selection) was “ES”, the “Morphology of cES cells” value (neomycin 20 μg/ml, day 7 under selection) was “ES” and the “Morphology of cES cells” value (neomycin 20 μg/ml, day 8 under selection) was “ES”. The “Morphology of cES cells” value (neomycin 20 μg/ml, day 9 under selection) was “ES”, the “Morphology of cES cells” value (neomycin 20 μg/ml, day 10 under selection) was “ES” and the “Morphology of cES cells” value (neomycin 30 μg/ml, day 1 under selection) was “ES”. The “Morphology of cES cells” value (neomycin 30 μg/ml, day 2 under selection) was “ES”, the “Morphology of cES cells” value (neomycin 30 μg/ml, day 3 under selection) was “ES” and the “Morphology of cES cells” value (neomycin 30 μg/ml, day 4 under selection) was “ES”. For the same substance, the “Morphology of cES cells” value (neomycin 30 μg/ml, day 5 under selection) was “ES”, the “Morphology of cES cells” value (neomycin 30 μg/ml, day 6 under selection) was “ES” and the “Morphology of cES cells” value (neomycin 30 μg/ml, day 9 under selection) was “Diff”. The “Morphology of cES cells” value (neomycin 40 μg/ml, day 1 under selection) was “ES”, the “Morphology of cES cells” value (neomycin 40 μg/ml, day 2 under selection) was “ES” and the “Morphology of cES cells” value (neomycin 40 μg/ml, day 3 under selection) was “ES”. For the same substance, the “Morphology of cES cells” value (neomycin 40 μg/ml, day 4 under selection) was “ES”, the “Morphology of cES cells” value (neomycin 40 μg/ml, day 7 under selection) was “dead” and the “Morphology of cES cells” value (neomycin 40 μg/ml, day 8 under selection) was “gone”. For the same substance, the “Morphology of cES cells” value (neomycin 40 μg/ml, day 9 under selection) was “gone”, the “Morphology of cES cells” value (neomycin 40 μg/ml, day 10 under selection) was “gone” and the “Morphology of cES cells” value (neomycin 50 μg/ml, day 1 under selection) was “ES”. For the same substance, the “Morphology of cES cells” value (neomycin 50 μg/ml, day 2 under selection) was “ES”, the “Morphology of cES cells” value (neomycin 50 μg/ml, day 3 under selection) was “ES” and the “Morphology of cES cells” value (neomycin 50 μg/ml, day 8 under selection) was “gone”. For the same substance, the “Morphology of cES cells” value (neomycin 50 μg/ml, day 9 under selection) was “gone”, the “Morphology of cES cells” value (neomycin 50 μg/ml, day 10 under selection) was “gone” and the “Morphology of cES cells” value (neomycin 60 μg/ml, day 1 under selection) was “ES”. For the same substance, the “Morphology of cES cells” value (neomycin 60 μg/ml, day 2 under selection) was “ES”, the “Morphology of cES cells” value (neomycin 60 μg/ml, day 3 under selection) was “ES” and the “Morphology of cES cells” value (neomycin 60 μg/ml, day 4 under selection) was “gone”. For the same substance, the “Morphology of cES cells” value (neomycin 60 μg/ml, day 5 under selection) was “gone”, the “Morphology of cES cells” value (neomycin 60 μg/ml, day 6 under selection) was “gone” and the “Morphology of cES cells” value (neomycin 60 μg/ml, day 7 under selection) was “gone”. The “Morphology of cES cells” value (neomycin 60 μg/ml, day 8 under selection) was “gone”, the “Morphology of cES cells” value (neomycin 60 μg/ml, day 9 under selection) was “gone” and the “Morphology of cES cells” value (neomycin 60 μg/ml, day 10 under selection) was “gone”. For the same substance, the “Morphology of cES cells” value (neomycin 100 μg/ml, day 2 under selection) was “Diff”, the “Morphology of cES cells” value (neomycin 100 μg/ml, day 3 under selection) was “dead” and the “Morphology of cES cells” value (neomycin 100 μg/ml, day 4 under selection) was “gone”. The “Morphology of cES cells” value (neomycin 100 μg/ml, day 5 under selection) was “gone”, the “Morphology of cES cells” value (neomycin 100 μg/ml, day 6 under selection) was “gone” and the “Morphology of cES cells” value (neomycin 100 μg/ml, day 7 under selection) was “gone”. For the same substance, the “Morphology of cES cells” value (neomycin 100 μg/ml, day 8 under selection) was “gone”, the “Morphology of cES cells” value (neomycin 100 μg/ml, day 9 under selection) was “gone” and the “Morphology of cES cells” value (neomycin 100 μg/ml, day 10 under selection) was “gone”. The “Morphology of cES cells” value (neomycin 150 μg/ml, day 1 under selection) was “dead”, the “Morphology of cES cells” value (neomycin 150 μg/ml, day 2 under selection) was “dead” and the “Morphology of cES cells” value (neomycin 150 μg/ml, day 3 under selection) was “gone”. For the same substance, the “Morphology of cES cells” value (neomycin 150 μg/ml, day 4 under selection) was “gone”, the “Morphology of cES cells” value (neomycin 150 μg/ml, day 5 under selection) was “gone” and the “Morphology of cES cells” value (neomycin 150 μg/ml, day 6 under selection) was “gone”. The “Morphology of cES cells” value (neomycin 150 μg/ml, day 7 under selection) was “gone”, the “Morphology of cES cells” value (neomycin 150 μg/ml, day 8 under selection) was “gone” and the “Morphology of cES cells” value (neomycin 150 μg/ml, day 9 under selection) was “gone”. For the same substance, the “Morphology of cES cells” value (neomycin 150 μg/ml, day 10 under selection) was “gone”, the “Morphology of cES cells” value (neomycin 200 μg/ml, day 1 under selection) was “dead” and the “Morphology of cES cells” value (neomycin 200 μg/ml, day 2 under selection) was “gone”. The “Morphology of cES cells” value (neomycin 200 μg/ml, day 3 under selection) was “gone”, the “Morphology of cES cells” value (neomycin 200 μg/ml, day 4 under selection) was “gone” and the “Morphology of cES cells” value (neomycin 200 μg/ml, day 5 under selection) was “gone”. The “Morphology of cES cells” value (neomycin 200 μg/ml, day 6 under selection) was “gone”, the “Morphology of cES cells” value (neomycin 200 μg/ml, day 7 under selection) was “gone” and the “Morphology of cES cells” value (neomycin 200 μg/ml, day 8 under selection) was “gone”. For the same substance, the “Morphology of cES cells” value (neomycin 200 μg/ml, day 9 under selection) was “gone”, the “Morphology of cES cells” value (neomycin 200 μg/ml, day 10 under selection) was “gone” and the “Time in which all cES cells were eliminated” value (neomycin concentrations over 40 μg/ml) was at most 7 days.
